Biological target: T1, Prostaglandin E2 receptor EP4 subtype (Rattus norvegicus, UniProt P43114)
Assay: Binding affinity to rat EP4 receptor expressed in HEK293 cells
Type: cell-based
Details: not given

T1 sequence (P43114 whole entry): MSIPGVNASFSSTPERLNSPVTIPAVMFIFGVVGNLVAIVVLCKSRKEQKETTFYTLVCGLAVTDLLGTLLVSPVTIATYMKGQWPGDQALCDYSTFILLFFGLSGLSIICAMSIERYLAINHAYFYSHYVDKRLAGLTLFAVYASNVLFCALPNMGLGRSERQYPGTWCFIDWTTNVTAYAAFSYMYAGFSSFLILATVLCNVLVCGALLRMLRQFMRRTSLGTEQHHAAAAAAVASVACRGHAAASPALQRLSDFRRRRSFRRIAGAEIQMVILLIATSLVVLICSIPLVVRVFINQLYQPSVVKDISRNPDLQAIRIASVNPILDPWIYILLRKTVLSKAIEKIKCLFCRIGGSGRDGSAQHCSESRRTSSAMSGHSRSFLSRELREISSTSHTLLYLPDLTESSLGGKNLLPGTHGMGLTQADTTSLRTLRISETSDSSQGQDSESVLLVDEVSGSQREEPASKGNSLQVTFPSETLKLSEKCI

IC50 [nM] | Compound
70 | O=C(O)c1ccc(CCCN2C(=O)CC[C@@H]2CC[C@@H](O)Cc2ccc(F)cc2)s1
1.1 | O=C(O)c1ccc(CCCN2C(=O)CC[C@@H]2CC[C@@H](O)Cc2cccc(Cl)c2)s1
2710 | O=C(O)CCCCCCN1C(=O)CC[C@@H]1CC[C@@H](O)CCc1ccccc1
1600 | O=C(O)c1ccc(CCCN2C(=O)CC[C@@H]2CCC(O)Cc2ccccc2-c2ccccc2)s1 (some centres not stated)
210 | COCCc1cccc(C[C@H](O)CC[C@H]2CCC(=O)N2CCCCCCC(=O)O)c1
62 | COCc1cccc(C[C@H](O)CC[C@H]2CCC(=O)N2CCCCCCC(=O)O)c1
54 | O=C(O)CCCCCCN1C(=O)CC[C@@H]1CCC(O)Cc1ccccc1 (some centres not stated)
47 | O=C(O)c1ccc(CCCN2C(=O)CCC2CCC(O)Cc2cccc(-c3ccccc3)c2)cc1 (configuration not stated)
2770 | O=C(O)c1ccc(CCCN2C(=O)CCC2CCC(O)Cc2ccc(F)cc2)cc1 (configuration not stated)
> 3200 | O=C(O)CCCCCCN1C(=O)CCC1CCC(O)CCc1ccccc1 (configuration not stated)
126 | O=C(O)c1ccc(CCCN2C(=O)CCC2CCC(O)Cc2cccc(F)c2)cc1 (configuration not stated)
50 | O=C(O)c1ccc(CCCN2C(=O)CC[C@@H]2CCC(O)Cc2cccc(-c3ccccc3)c2)s1 (some centres not stated)
21 | O=C(O)c1ccc(CCCN2C(=O)CC[C@@H]2CCC(O)Cc2ccccc2)s1 (some centres not stated)

System: not listed separately
Assay: Half life in po dosed Sprague-Dawley rat
Type: ADME, organism-based
Details: in vivo

half-life [min] | Compound
52.2 | O=C(O)c1ccc(CCCN2C(=O)CC[C@@H]2CC[C@@H](O)Cc2cccc(C(F)(F)F)c2)s1
27 | O=C(O)CCCCCCN1C(=O)CC[C@@H]1CCC(O)Cc1ccccc1 (some centres not stated)

Biological target: T1, Prostaglandin E2 receptor EP4 subtype
Assay: Activity at rat EP4 transfected in HEK293 cells by cAMP accumulation
Type: functional, cell-based
Details: not given

EC50 [nM] | Compound
22 | O=C(O)c1ccc(CCCN2C(=O)CC[C@@H]2CC[C@@H](O)Cc2ccc(F)cc2)s1
0.6 | O=C(O)c1ccc(CCCN2C(=O)CC[C@@H]2CC[C@@H](O)Cc2cccc(Cl)c2)s1
92 | COCCc1cccc(C[C@H](O)CC[C@H]2CCC(=O)N2CCCCCCC(=O)O)c1
18 | COCc1cccc(C[C@H](O)CC[C@H]2CCC(=O)N2CCCCCCC(=O)O)c1
32.5 | O=C(O)CCCCCCN1C(=O)CC[C@@H]1CCC(O)Cc1ccccc1 (some centres not stated)
440 | O=C(O)c1ccc(CCCN2C(=O)CCC2CCC(O)Cc2cccc(-c3ccccc3)c2)cc1 (configuration not stated)
203 | O=C(O)c1ccc(CCCN2C(=O)CC[C@@H]2CCC(O)Cc2cccc(-c3ccccc3)c2)s1 (some centres not stated)
1.7 | O=C(O)c1ccc(CCCN2C(=O)CC[C@@H]2CCC(O)Cc2ccccc2)s1 (some centres not stated)

System: not listed separately
Assay: Plasma clearance in iv dosed Sprague-Dawley rat
Details: not given

clearance [mL/min/kg] | Compound
70 | O=C(O)c1ccc(CCCN2C(=O)CC[C@@H]2CC[C@@H](O)Cc2cccc(C(F)(F)F)c2)s1
101 | O=C(O)CCCCCCN1C(=O)CC[C@@H]1CCC(O)Cc1ccccc1 (some centres not stated)

System: not listed separately
Assay: Half life in sc dosed Sprague-Dawley rat
Type: ADME, organism-based
Details: in vivo

half-life [min] | Compound
18 | O=C(O)c1ccc(CCCN2C(=O)CC[C@@H]2CC[C@@H](O)Cc2cccc(C(F)(F)F)c2)s1
21 | O=C(O)CCCCCCN1C(=O)CC[C@@H]1CCC(O)Cc1ccccc1 (some centres not stated)

Biological target: Prostaglandin E2 receptor EP2 subtype (Rattus norvegicus, UniProt Q62928)
Assay: Binding affinity to rat EP2 receptor expressed in HEK293 cells
Type: cell-based
Details: not given

Chain of Prostaglandin E2 receptor EP2 subtype (Q62928 whole entry): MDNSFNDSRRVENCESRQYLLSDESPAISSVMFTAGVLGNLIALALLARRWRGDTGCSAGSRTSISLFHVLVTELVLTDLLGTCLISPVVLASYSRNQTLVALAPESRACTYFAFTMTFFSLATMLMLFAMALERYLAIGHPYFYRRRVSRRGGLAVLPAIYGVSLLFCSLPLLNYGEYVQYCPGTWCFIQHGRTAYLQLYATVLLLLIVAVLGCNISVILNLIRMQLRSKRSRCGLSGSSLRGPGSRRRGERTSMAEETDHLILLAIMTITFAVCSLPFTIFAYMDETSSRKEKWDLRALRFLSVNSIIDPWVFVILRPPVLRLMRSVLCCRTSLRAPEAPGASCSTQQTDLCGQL

IC50 [nM] | Compound
1200 | O=C(O)c1ccc(CCCN2C(=O)CC[C@@H]2CC[C@@H](O)Cc2ccc(F)cc2)s1
188 | O=C(O)c1ccc(CCCN2C(=O)CC[C@@H]2CC[C@@H](O)Cc2cccc(Cl)c2)s1
> 3200 | O=C(O)CCCCCCN1C(=O)CC[C@@H]1CC[C@@H](O)CCc1ccccc1
125 | O=C(O)c1ccc(CCCN2C(=O)CC[C@@H]2CCC(O)Cc2ccccc2-c2ccccc2)s1 (some centres not stated)
> 3200 | O=C(O)CCCCCCN1C(=O)CC[C@@H]1CCC(O)Cc1cccc(Oc2ccccc2)c1 (some centres not stated)
> 3200 | COCCc1cccc(C[C@H](O)CC[C@H]2CCC(=O)N2CCCCCCC(=O)O)c1
483 | O=C(O)c1ccc(CCCN2C(=O)CC[C@@H]2CC[C@@H](O)Cc2cccc(C(F)(F)F)c2)s1
> 3200 | COCc1cccc(C[C@H](O)CC[C@H]2CCC(=O)N2CCCCCCC(=O)O)c1
> 3200 | O=C(O)CCCCCCN1C(=O)CC[C@@H]1CCC(O)Cc1ccccc1 (some centres not stated)
> 3200 | O=C(O)c1ccc(CCCN2C(=O)CCC2CCC(O)Cc2cccc(-c3ccccc3)c2)cc1 (configuration not stated)
> 3200 | O=C(O)c1ccc(CCCN2C(=O)CCC2CCC(O)Cc2ccc(F)cc2)cc1 (configuration not stated)
> 3200 | O=C(O)CCCCCCN1C(=O)CCC1CCC(O)CCc1ccccc1 (configuration not stated)
> 3200 | O=C(O)c1ccc(CCCN2C(=O)CCC2CCC(O)Cc2cccc(F)c2)cc1 (configuration not stated)
135 | O=C(O)c1ccc(CCCN2C(=O)CC[C@@H]2CCC(O)Cc2cccc(-c3ccccc3)c2)s1 (some centres not stated)
690 | O=C(O)c1ccc(CCCN2C(=O)CC[C@@H]2CCC(O)Cc2ccccc2)s1 (some centres not stated)

System: not listed separately
Assay: Half life in iv dosed Sprague-Dawley rat
Type: ADME, organism-based
Details: in vivo

half-life [min] | Compound
12 | O=C(O)c1ccc(CCCN2C(=O)CC[C@@H]2CC[C@@H](O)Cc2cccc(C(F)(F)F)c2)s1
6 | O=C(O)CCCCCCN1C(=O)CC[C@@H]1CCC(O)Cc1ccccc1 (some centres not stated)

System: Rattus norvegicus
Assay: Volume distribution in sc dosed Sprague-Dawley rat
Type: ADME, organism-based
Details: in vivo

Vdss [L/kg] | Compound
0.49 | O=C(O)c1ccc(CCCN2C(=O)CC[C@@H]2CC[C@@H](O)Cc2cccc(C(F)(F)F)c2)s1
0.4 | O=C(O)CCCCCCN1C(=O)CC[C@@H]1CCC(O)Cc1ccccc1 (some centres not stated)

Biological target: Prostaglandin E2 receptor EP4 subtype (Rattus norvegicus) (UniProt P43114)
Assay: Activity at rat EP4 transfected in HEK293 cells by cAMP accumulation compared to PGE2
Type: functional, cell-based
Details: not given

Chain of Prostaglandin E2 receptor EP4 subtype (Rattus norvegicus) (P43114 whole entry): as the sequence (P43114 whole entry) above

Activity [%] | Compound
70 | O=C(O)c1ccc(CCCN2C(=O)CC[C@@H]2CC[C@@H](O)Cc2ccc(F)cc2)s1
70 | O=C(O)c1ccc(CCCN2C(=O)CC[C@@H]2CC[C@@H](O)Cc2cccc(Cl)c2)s1
82 | COCCc1cccc(C[C@H](O)CC[C@H]2CCC(=O)N2CCCCCCC(=O)O)c1
102 | O=C(O)c1ccc(CCCN2C(=O)CC[C@@H]2CC[C@@H](O)Cc2cccc(C(F)(F)F)c2)s1
89 | COCc1cccc(C[C@H](O)CC[C@H]2CCC(=O)N2CCCCCCC(=O)O)c1
114 | O=C(O)CCCCCCN1C(=O)CC[C@@H]1CCC(O)Cc1ccccc1 (some centres not stated)
97 | O=C(O)c1ccc(CCCN2C(=O)CCC2CCC(O)Cc2cccc(-c3ccccc3)c2)cc1 (configuration not stated)
95 | O=C(O)c1ccc(CCCN2C(=O)CC[C@@H]2CCC(O)Cc2cccc(-c3ccccc3)c2)s1 (some centres not stated)
88 | O=C(O)c1ccc(CCCN2C(=O)CC[C@@H]2CCC(O)Cc2ccccc2)s1 (some centres not stated)

Biological target: T2, Prostaglandin E2 receptor EP1 subtype (Homo sapiens, UniProt P34995)
T2 sequence (P34995 whole entry): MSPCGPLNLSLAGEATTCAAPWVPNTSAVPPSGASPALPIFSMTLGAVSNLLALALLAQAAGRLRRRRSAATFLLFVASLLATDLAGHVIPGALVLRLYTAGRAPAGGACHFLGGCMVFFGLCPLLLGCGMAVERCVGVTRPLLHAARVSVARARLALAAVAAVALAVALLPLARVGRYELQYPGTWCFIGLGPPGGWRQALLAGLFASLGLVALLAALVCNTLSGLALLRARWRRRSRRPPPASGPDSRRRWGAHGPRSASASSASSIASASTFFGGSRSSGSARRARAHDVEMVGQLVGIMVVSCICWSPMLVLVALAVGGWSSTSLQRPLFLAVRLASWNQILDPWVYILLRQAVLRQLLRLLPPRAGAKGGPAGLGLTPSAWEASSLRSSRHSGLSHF
Assay: Binding affinity to human EP1 receptor expressed in HEK293 cells
Type: cell-based
Details: not given

IC50 [nM] | Compound
> 3200 | O=C(O)CCCCCCN1C(=O)CC[C@@H]1CCC(O)Cc1cccc(Oc2ccccc2)c1 (some centres not stated)
> 3200 | COCc1cccc(C[C@H](O)CC[C@H]2CCC(=O)N2CCCCCCC(=O)O)c1
> 3200 | O=C(O)CCCCCCN1C(=O)CC[C@@H]1CCC(O)Cc1ccccc1 (some centres not stated)
> 3200 | O=C(O)c1ccc(CCCN2C(=O)CCC2CCC(O)Cc2ccc(F)cc2)cc1 (configuration not stated)
18600 | O=C(O)c1ccc(CCCN2C(=O)CC[C@@H]2CCC(O)Cc2cccc(-c3ccccc3)c2)s1 (some centres not stated)

Biological target: T3, Prostaglandin E2 receptor EP3 subtype (Homo sapiens, UniProt P43115)
T3 sequence (P43115 whole entry): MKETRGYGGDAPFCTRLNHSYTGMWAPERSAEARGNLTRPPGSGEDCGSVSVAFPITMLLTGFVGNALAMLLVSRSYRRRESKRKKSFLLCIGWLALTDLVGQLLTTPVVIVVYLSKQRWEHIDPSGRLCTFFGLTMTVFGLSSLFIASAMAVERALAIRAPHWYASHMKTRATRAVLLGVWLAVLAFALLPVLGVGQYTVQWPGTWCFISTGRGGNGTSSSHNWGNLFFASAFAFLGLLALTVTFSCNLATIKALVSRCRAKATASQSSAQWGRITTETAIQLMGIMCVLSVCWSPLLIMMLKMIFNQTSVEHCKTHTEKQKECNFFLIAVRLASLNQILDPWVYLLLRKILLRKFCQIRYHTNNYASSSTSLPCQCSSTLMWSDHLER
Assay: Binding affinity to human EP3 receptor expressed in HEK293 cells
Type: cell-based
Details: not given

IC50 [nM] | Compound
> 3200 | O=C(O)CCCCCCN1C(=O)CC[C@@H]1CCC(O)Cc1cccc(Oc2ccccc2)c1 (some centres not stated)
> 2000 | COCc1cccc(C[C@H](O)CC[C@H]2CCC(=O)N2CCCCCCC(=O)O)c1
> 3200 | O=C(O)CCCCCCN1C(=O)CC[C@@H]1CCC(O)Cc1ccccc1 (some centres not stated)
> 3200 | O=C(O)c1ccc(CCCN2C(=O)CCC2CCC(O)Cc2ccc(F)cc2)cc1 (configuration not stated)
20000 | O=C(O)c1ccc(CCCN2C(=O)CC[C@@H]2CCC(O)Cc2cccc(-c3ccccc3)c2)s1 (some centres not stated)

System: not listed separately
Assay: Oral bioavailability in Sprague-Dawley rat
Type: ADME, organism-based
Details: in vivo

bioavailability [%] | Compound
1 | O=C(O)c1ccc(CCCN2C(=O)CC[C@@H]2CC[C@@H](O)Cc2cccc(C(F)(F)F)c2)s1
21 | O=C(O)CCCCCCN1C(=O)CC[C@@H]1CCC(O)Cc1ccccc1 (some centres not stated)

Source: ChEMBL document CHEMBL1146126 (Bioorg Med Chem Lett, 2006)
